Test systems include T-47D breast; HOP-18 NSCLC; M19-MEL melanoma; BT-549 breast; XF 498 CNS; LXFL 529 NSCLC; RXF-631 renal; P388/ADR leukemia.
Common to all, as to test: NCI tumour cell line growth inhibition, 48 h

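Growth conditions: 96-well plates. Treatment: test compound, 48 hours, 5 concentrations. Analysis: linear interpolation between bracketing concentrations; unreached endpoints set to highest concentration. GI50: concentration for 50% inhibition of growth. TGI is the concentration that stops growth completely.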 A value given as a limit tells only on which side of the number the result lay.

`CN(CCO)CCC1COc2ccccc2O1` (configuration not stated): in the test on T-47D breast, the TGI is above 10 µM.

For `N#C[S-].[Ce+3].c1ccc(-c2ccccn2)nc1.c1ccc(-c2ccccn2)nc1.c1ccc(-c2ccccn2)nc1`, in the test on HOP-18 NSCLC, the GI50 was 4.33 µM and the TGI was 46.8 µM. Also, in the test on M19-MEL melanoma, the GI50 is 15.4 µM and the TGI is 65.8 µM.

As for `COC1=CC(c2ccc[nH]2)=N/C1=C\c1[nH]c(C)c(CC(=O)NCc2ccccc2)c1C`, in the test on BT-549 breast, the GI50 was 1.41 µM and the TGI is 3.06 µM.

With `COc1nc2ccc(Cl)c(C(O)c3ccccc3)c2nc1OC` (configuration not stated), the TGI in the test on T-47D breast worked out at 99.4 µM; in the test with BT-549 breast, 80.7 µM.

With `N/C(=C\c1ccc(/C=C(\NC(=O)c2ccccc2)c2nc3c([nH]2)C(=O)c2ccccc2C3=O)cc1)c1nc2c([nH]1)C(=O)c1ccccc1C2=O`, the values for the TGI with XF 498 CNS, in the test on HOP-18 NSCLC and in the test with LXFL 529 NSCLC were 24.3 µM, 28.4 µM and 24.6 µM, respectively.

For `COC(Cc1cc(C(O)(c2ccc(C(C)(C)C)cc2)c2cc(CC(OC)(c3cc(C(OC)(c4ccc(C(C)(C)C)cc4)c4ccc(C(C)(C)C)cc4)c(C)cc3C)c3cc(C(OC)(c4ccc(C(C)(C)C)cc4)c4ccc(C(C)(C)C)cc4)c(C)cc3C)c(C)cc2C)c(C)cc1C)(c1cc(C(OC)(c2ccc(C(C)(C)C)cc2)c2ccc(C(C)(C)C)cc2)c(C)cc1C)c1cc(C(OC)(c2ccc(C(C)(C)C)cc2)c2ccc(C(C)(C)C)cc2)c(C)cc1C`, the TGI in the test on T-47D breast and in the test on BT-549 breast was above 75 µM each time.

On to `N#CC1(C#N)C(=O)c2ccncc2C1=O`, for which the TGI in the test with T-47D breast and with BT-549 breast was above 100 µM each time.

`COc1cc(/C=C2\C(=O)Nc3ccc(Cl)cc32)cc(OC)c1OC`: the GI50 with T-47D breast was above 100 µM; with BT-549 breast, 22.3 µM. The figures for the TGI in the test on T-47D breast and with BT-549 breast were above 100 µM and 92.3 µM, respectively.

On to `CCCC[n+]1ccn(-c2nc3ccccc3n2C)c1`, for which the TGI in the test on HOP-18 NSCLC, in the test on RXF-631 renal and with LXFL 529 NSCLC was above 100 µM in each case.

As for `C/C=C(\C)C(=O)OC1C2C(C)=CC(=O)C(O)C2(C)C2C3(O)OCC24C1OC(=O)C(OC(C)=O)C4C(C)C3O` (configuration not stated), the TGI is 0.0577 µM in the test with XF 498 CNS, 0.792 µM in the test with HOP-18 NSCLC, 0.924 µM in the test on P388/ADR leukemia and 0.0455 µM in the test on M19-MEL melanoma.

Source of the values: PubChem BioAssay (NCI).
